Laboratory results from patent publication US5602101A, “Antithrombotic agents” (priority 1994, dated 1997).

Biological target: T1, tissue plasminogen activator (t-PA) (Homo sapiens, UniProt P00750)
T1 construct: purchased American Diagnostics, Greenwich, Conn
Experiment: Serine protease inhibition, t-PA (chromogenic substrate), Kass
Assay type: biochemical
Conditions: substrate H-D-Ile-Pro-Arg-p-nitroanilide
Procedure: (§1) The assay is carried out by mixing 50 μl buffer (0.03M Tris, 0.15M NaCl, pH 7.4), 25 μl of human thrombin solution (purified human thrombin Enzyme Research Laboratories, South Bend, Ind.) at 8 NIH units/ml and 25 μl of test compound in a solvent (50% aqueous methanol (v:v)). Then 150 μl of an aqueous solution of the chromogenic substrate (at 0.25 mg/ml) are added and the rates of hydrolysis of the substrate are measured by monitoring the reactions at 405 nm for the release of p-nitroaniline. Standard curves are constructed by plotting free thrombin concentration against hydrolysis rate. The hydrolysis rates observed with test compounds are then converted to "free thrombin" values in the respective assays by use of the standard curves. The bound thrombin (bound to test compound) is calculated by subtracting the amount of free thrombin observed in each assay from the known initial amount of thrombin used in the assay. The amount of free inhibitor in each assay is calculated by subtracting the number of moles of bound thrombin from the number of moles of added inhibitor (test compound).
(§2) Kass is calculated for a range of concentrations of test compounds and the mean value is reported in units of liter per mole.
(§3) By substantially following the procedures described above for human thrombin, and using other human blood coagulation system serine proteases, and using fibrinolytic system serine proteases, with the appropriate chromogenic substrate, identified below, selectivity of the compounds of the present invention with respect to the coagulation factor serine proteases and to the fibrinolytic serine proteases are evaluated as well as their substantial lack of interference with human plasma clot fibrinolysis.
(§4) Human factors X, Xa, IXa, XIa, and xIIa are purchased from Enzyme Research Laboratories, South Bend, Ind.; human urokinase from Leo Pharmaceuticals, Denmark; and recombinant activated Protein C (aPC) is prepared at Eli Lilly and Co. substantially according to U.S. Pat. No. 4,981,952 incorporated by reference herein in its entirety. Chromogenic substrates: N-Benzoyl-Ile-Glu-Gly-Arg-p-nitroanilide (for factor Xa); N-Cbz-D-Arg-Gly-Arg-p-nitroanilide (for factor IXa assay as the factor Xa substrate) pyroglutamyl-Pro-Arg-p-nitroanilide (for factor XIa and for aPC); H-D-Pro-Phe-Arg-p-nitroanilide (for factor XIIa); and pyroglutamyl-Gly-Arg-p-nitroanilide (for urokinase); are purchased from KabiVitrum, Stockholm, Sweden, or from Midwest Biotech, Fishers, Indiana. Bovine trypsin is purchased from Worthington Biochemicals, Freehold, N.J., and human plasma kallikrein from Kabi Vitrum, Stockholm, Sweden. N-Benzoyl-Phe-Val-Arg-p-nitroanilide, the substrate for human thrombin and for trypsin, is synthesized according to procedures described above for the compounds of the present invention, known methods of peptide coupling from commercially available reactants, or was purchased from Midwest Biotech, Fishers, Ind. Human plasmin is purchased from Boehringer Mannheim, Indianapolis, Ind.; nt-PA is purchased as single chain activity reference from American Diagnostics, Greenwich, Conn.; modified-t-PA6 (mt-PA6) is prepared at Eli Lilly and Company by procedure known in the art (See, Burck, et al., J. Biol. Chem., 265, […] (1990). Plasmin chromogenic substrate H-D-Val-Leu-Lys-p-nitroanilide and tissue plasminegen activator (t-PA) substrate H-D-Ile-Pro-Arg-p-nitroanilide are purchased from Kabi Vitrum, Stockholm, Sweden.

T1 sequence (P00750 36-562): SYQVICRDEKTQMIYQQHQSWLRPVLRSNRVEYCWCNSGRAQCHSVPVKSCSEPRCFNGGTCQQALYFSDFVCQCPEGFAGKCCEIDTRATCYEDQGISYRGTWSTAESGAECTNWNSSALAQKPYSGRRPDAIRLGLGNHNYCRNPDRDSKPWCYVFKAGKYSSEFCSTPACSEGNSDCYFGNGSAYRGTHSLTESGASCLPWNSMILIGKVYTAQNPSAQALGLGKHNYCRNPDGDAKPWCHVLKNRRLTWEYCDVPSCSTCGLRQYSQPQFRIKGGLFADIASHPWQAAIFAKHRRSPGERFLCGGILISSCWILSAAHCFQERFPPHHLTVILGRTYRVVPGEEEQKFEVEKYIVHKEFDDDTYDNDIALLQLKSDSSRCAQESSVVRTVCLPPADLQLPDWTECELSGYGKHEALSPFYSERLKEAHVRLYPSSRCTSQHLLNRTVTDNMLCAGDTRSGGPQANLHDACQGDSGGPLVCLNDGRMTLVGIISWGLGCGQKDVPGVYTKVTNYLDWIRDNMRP

In order of falling “Enzyme Kass, t-Pa” value:
1. CC(C)S(=O)(=O)N[C@H](Cc1ccccc1)C(=O)N1CCC[C@H]1C(=O)N[C@H](C=O)CCCNC(=N)N.Cl [Example 11, i-Pr-SO2 -D-Phe-Pro-Arg-H-HCl]  3.5 L/mol × 10^6
2. CCCCS(=O)(=O)N[C@H](Cc1ccccc1)C(=O)N1CCC[C@H]1C(=O)N[C@H](C=O)CCCNC(=N)N.Cl [Example 10, n-Bu-SO2 -D-Phe-Pro-Arg-H.HCl]  0.83 L/mol × 10^6

Biological target: T2, Bovine trypsin (Bos taurus, UniProt P00760)
T2 construct: Bovine trypsin is purchased from Worthington Biochemicals, Freehold, N.J; purchased Worthington Biochemicals, Freehold, N.J
T2 sequence (P00760 24-246): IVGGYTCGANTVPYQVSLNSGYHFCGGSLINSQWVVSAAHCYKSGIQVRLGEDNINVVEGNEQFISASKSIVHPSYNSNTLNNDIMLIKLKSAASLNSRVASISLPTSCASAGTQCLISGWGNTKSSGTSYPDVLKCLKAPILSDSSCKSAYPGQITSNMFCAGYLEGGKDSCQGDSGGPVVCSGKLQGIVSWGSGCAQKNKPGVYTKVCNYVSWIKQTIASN
Experiment: Serine protease inhibition, trypsin (chromogenic substrate), Kass
Assay type: biochemical
Conditions: substrate N-Benzoyl-Phe-Val-Arg-p-nitroanilide
Procedure: as §1, §2, §3, §4

In order of falling “Enzyme Kass, Trypsin” value:
1. CC(C)S(=O)(=O)N[C@H](Cc1ccccc1)C(=O)N1CCC[C@H]1C(=O)N[C@H](C=O)CCCNC(=N)N.Cl [Example 11, i-Pr-SO2 -D-Phe-Pro-Arg-H-HCl]  260 L/mol × 10^6
2. CCCCS(=O)(=O)N[C@H](Cc1ccccc1)C(=O)N1CCC[C@H]1C(=O)N[C@H](C=O)CCCNC(=N)N.Cl [Example 10, n-Bu-SO2 -D-Phe-Pro-Arg-H.HCl]  230 L/mol × 10^6

Biological target: T3, human thrombin (Homo sapiens, UniProt P00734)
T3 construct: purified human thrombin Enzyme Research Laboratories, South Bend, Ind; purchased Enzyme Research Laboratories, South Bend, Ind
Experiment: Inhibition of amidase activity of thrombin (chromogenic substrate), Kass
Assay type: biochemical
Conditions: substrate N-benzoyl-Phe-Val-Arg-p-nitroanilide, pH 7.4
Procedure: as §1
The Kass value is the hypothetical equilibrium constant for the reaction between thrombin and the test compound (I). [drawing 53]
as §2

In order of falling “Enzyme Kass, Human Thrombin” value:
1. CCCCS(=O)(=O)N[C@H](Cc1ccccc1)C(=O)N1CCC[C@H]1C(=O)N[C@H](C=O)CCCNC(=N)N.Cl [Example 10, n-Bu-SO2 -D-Phe-Pro-Arg-H.HCl]  470 L/mol × 10^6
2. CC(C)S(=O)(=O)N[C@H](Cc1ccccc1)C(=O)N1CCC[C@H]1C(=O)N[C@H](C=O)CCCNC(=N)N.Cl [Example 11, i-Pr-SO2 -D-Phe-Pro-Arg-H-HCl]  460 L/mol × 10^6

Biological target: T4, Human plasmin (Homo sapiens, UniProt P00747)
T4 construct: Human plasmin is purchased from Boehringer Mannheim, Indianapolis, Ind; purchased Boehringer Mannheim, Indianapolis, Ind
Experiment: Serine protease inhibition, plasmin (chromogenic substrate), Kass
Assay type: biochemical
Conditions: substrate H-D-Val-Leu-Lys-p-nitroanilide
Procedure: as §1, §2, §3, §4

T4 sequence (P00747 581-810 limits assumed): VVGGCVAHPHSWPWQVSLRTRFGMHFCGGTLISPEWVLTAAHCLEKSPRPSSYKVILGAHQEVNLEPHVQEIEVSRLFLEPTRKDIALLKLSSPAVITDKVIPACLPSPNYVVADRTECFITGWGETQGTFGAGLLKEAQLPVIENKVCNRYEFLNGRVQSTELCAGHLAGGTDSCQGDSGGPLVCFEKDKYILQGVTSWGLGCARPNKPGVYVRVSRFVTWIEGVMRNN
T4 sequence (P00747 97-580 partner limits assumed): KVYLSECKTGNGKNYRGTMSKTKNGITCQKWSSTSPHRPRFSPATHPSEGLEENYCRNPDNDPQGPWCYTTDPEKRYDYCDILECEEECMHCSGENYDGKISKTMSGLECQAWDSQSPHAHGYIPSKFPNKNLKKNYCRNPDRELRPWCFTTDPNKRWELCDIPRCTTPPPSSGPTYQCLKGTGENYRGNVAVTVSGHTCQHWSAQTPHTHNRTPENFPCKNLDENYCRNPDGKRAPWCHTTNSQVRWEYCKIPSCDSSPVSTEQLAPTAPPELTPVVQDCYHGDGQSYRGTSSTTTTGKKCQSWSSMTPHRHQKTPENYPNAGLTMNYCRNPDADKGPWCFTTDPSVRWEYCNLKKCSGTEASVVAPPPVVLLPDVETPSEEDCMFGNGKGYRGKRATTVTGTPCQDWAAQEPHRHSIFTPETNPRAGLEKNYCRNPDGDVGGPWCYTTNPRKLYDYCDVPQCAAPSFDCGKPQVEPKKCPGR

In order of rising “Enzyme Kass, Plasmin” value:
1. CC(C)S(=O)(=O)N[C@H](Cc1ccccc1)C(=O)N1CCC[C@H]1C(=O)N[C@H](C=O)CCCNC(=N)N.Cl [Example 11, i-Pr-SO2 -D-Phe-Pro-Arg-H-HCl]  25 L/mol × 10^6
2. CCCCS(=O)(=O)N[C@H](Cc1ccccc1)C(=O)N1CCC[C@H]1C(=O)N[C@H](C=O)CCCNC(=N)N.Cl [Example 10, n-Bu-SO2 -D-Phe-Pro-Arg-H.HCl]  27 L/mol × 10^6

Biological target: T5, factor Xa (Homo sapiens, UniProt P00742)
T5 construct: Human factors X, Xa, IXa, XIa, and xIIa are purchased from Enzyme Research Laboratories; purchased Enzyme Research Laboratories, South Bend, Ind
Experiment: Serine protease inhibition, factor Xa (chromogenic substrate), Kass
Assay type: biochemical
Conditions: substrate N-Benzoyl-Ile-Glu-Gly-Arg-p-nitroanilide
Procedure: as §1, §2, §3, §4

T5 sequence (P00742 235-488 limits assumed): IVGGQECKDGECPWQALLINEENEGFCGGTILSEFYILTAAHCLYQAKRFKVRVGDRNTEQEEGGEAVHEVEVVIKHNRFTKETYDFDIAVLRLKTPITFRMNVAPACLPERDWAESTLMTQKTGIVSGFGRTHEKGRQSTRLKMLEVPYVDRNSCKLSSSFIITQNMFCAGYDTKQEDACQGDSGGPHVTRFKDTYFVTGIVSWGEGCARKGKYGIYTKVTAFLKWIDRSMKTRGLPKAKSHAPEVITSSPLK
T5 sequence (P00742 41-179 partner limits assumed): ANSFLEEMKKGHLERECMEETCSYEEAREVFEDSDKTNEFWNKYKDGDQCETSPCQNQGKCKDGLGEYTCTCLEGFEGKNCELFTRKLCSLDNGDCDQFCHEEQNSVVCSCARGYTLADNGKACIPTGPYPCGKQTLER

In order of falling “Enzyme Kass, Xa” value:
1. CCCCS(=O)(=O)N[C@H](Cc1ccccc1)C(=O)N1CCC[C@H]1C(=O)N[C@H](C=O)CCCNC(=N)N.Cl [Example 10, n-Bu-SO2 -D-Phe-Pro-Arg-H.HCl]  8.3 L/mol × 10^6
2. CC(C)S(=O)(=O)N[C@H](Cc1ccccc1)C(=O)N1CCC[C@H]1C(=O)N[C@H](C=O)CCCNC(=N)N.Cl [Example 11, i-Pr-SO2 -D-Phe-Pro-Arg-H-HCl]  6.0 L/mol × 10^6

System: Human Plasma
Experiment: Anticoagulation in human plasma, thrombin time (TT)
Assay type: biochemical
Conditions: concentration required to double the thrombin time
Procedure: (§5) Dog plasma and rat plasma are obtained from conscious mixed-breed hounds (either sex, Hazelton-LRE, Kalamazoo, Mich., U.S.A.) or from anesthetized male Sprague-Dawley rats (Harlan Sprague-Dawley, Inc., Indianapolis, Ind., U.S.A.) by venipuncture into 3.8 percent citrate. Fibrinogen is prepared from in-date ACD human blood as the fraction I-2 according to previous procedures and specifications. Smith, Biochem. Chem. […] Human fibrinogen is also purchased as 98 percent pure/plasmin free from American Diagnostics, Greenwich, Conn. Coagulation reagents ACTIN, Thromboplastin, and Human plasma are from Baxter Healthcare Corp., Dade Division, Miami, Fla. Bovine thrombin from Parke-Davis (Ann Arbor, Mich.) is used for coagulation assays in plasma. Coagulation assay procedures are as previously described. Smith, et al., Thrombosis Research, 5, 163-174 (1988). A CoAScreener coagulation instrument (American LABor, Inc.) is used for all coagulation assay measurements. The prothrombin time (PT) is measured by adding 0.05 ml saline and 0.05 ml Thromboplastin-C reagent to 0.05 ml test plasma. The activated partial thromboplastin time (APTT) is measured by incubation of 0.05 ml test plasma with 0.05 ml Actin reagent for 120 seconds followed by 0.05 ml CaCl2 (0.02M). […] The compounds of formula I are added to human or animal plasma over a wide range of concentrations to determine prolongation effects on the APTT, PT, and TT assays. Linear extrapolations are performed to estimate the concentrations required to double the clotting time for each assay.

In order of falling “2 × Clotting time, TT” value:
1. CCCCS(=O)(=O)N[C@H](Cc1ccccc1)C(=O)N1CCC[C@H]1C(=O)N[C@H](C=O)CCCNC(=N)N.Cl [Example 10, n-Bu-SO2 -D-Phe-Pro-Arg-H.HCl]  18 ng/mL
2. CC(C)S(=O)(=O)N[C@H](Cc1ccccc1)C(=O)N1CCC[C@H]1C(=O)N[C@H](C=O)CCCNC(=N)N.Cl [Example 11, i-Pr-SO2 -D-Phe-Pro-Arg-H-HCl]  13 ng/mL

System: Human Plasma
Experiment: Anticoagulation in human plasma, prothrombin time (PT)
Assay type: biochemical
Conditions: concentration required to double the PT
Procedure: as §5

In order of falling “2 × Clotting time, PT” value:
1. CCCCS(=O)(=O)N[C@H](Cc1ccccc1)C(=O)N1CCC[C@H]1C(=O)N[C@H](C=O)CCCNC(=N)N.Cl [Example 10, n-Bu-SO2 -D-Phe-Pro-Arg-H.HCl]  700 ng/mL
2. CC(C)S(=O)(=O)N[C@H](Cc1ccccc1)C(=O)N1CCC[C@H]1C(=O)N[C@H](C=O)CCCNC(=N)N.Cl [Example 11, i-Pr-SO2 -D-Phe-Pro-Arg-H-HCl]  510 ng/mL

System: not listed separately
Experiment: Index of bioavailability (plasma TT AUC, p.o. vs i.v.)
Conditions: rats, adjusted for dose

In order of falling “Index of Bioavailability, % Relative Activity” value:
1. CCCCS(=O)(=O)N[C@H](Cc1ccccc1)C(=O)N1CCC[C@H]1C(=O)N[C@H](C=O)CCCNC(=N)N.Cl [Example 10, n-Bu-SO2 -D-Phe-Pro-Arg-H.HCl]  18%
2. CC(C)S(=O)(=O)N[C@H](Cc1ccccc1)C(=O)N1CCC[C@H]1C(=O)N[C@H](C=O)CCCNC(=N)N.Cl [Example 11, i-Pr-SO2 -D-Phe-Pro-Arg-H-HCl]  10%

System: Human Plasma
Experiment: Anticoagulation in human plasma, activated partial thromboplastin time (APTT)
Assay type: biochemical
Conditions: concentration required to double the APTT
Procedure: as §5

In order of rising “2 × Clotting time, APTT” value:
1. CC(C)S(=O)(=O)N[C@H](Cc1ccccc1)C(=O)N1CCC[C@H]1C(=O)N[C@H](C=O)CCCNC(=N)N.Cl [Example 11, i-Pr-SO2 -D-Phe-Pro-Arg-H-HCl]  270 ng/mL
2. CCCCS(=O)(=O)N[C@H](Cc1ccccc1)C(=O)N1CCC[C@H]1C(=O)N[C@H](C=O)CCCNC(=N)N.Cl [Example 10, n-Bu-SO2 -D-Phe-Pro-Arg-H.HCl]  300 ng/mL
